# From PubChem BioAssay AID242 (DTP/NCI, 2004)
# Values joined by “and” are separate entries in the source; they are usually repeats but may differ in a detail not shown here. Equal values may be shown once. Inconclusive results and toxic doses are left out.
# System: BDF1 mice, Lymphoma 8 ip, survival T/C
# Experiment: NCI In Vivo Anticancer Drug Screen. Data for tumor model Lymphoma 8 (intraperitoneal) in B6D2F1 (BDF1) mice
# Details: higher = longer survival
# Experimental: The antitumor activity of compounds was measured in mice bearing transplantable tumors. Survival or tumor size were measured and the results are expressed as the measurement made in the treated group (T) divided by the measurement made in the vehicle treated control group (C). The tumor model used in this assay is Lymphoma 8 (intraperitoneal) in B6D2F1 (BDF1) mice
# [1] = endpoint: survival time, mean or median, dose: 5.0 mg/kg/injection, schedule: Q01DX010 (ip), vehicle: saline
# [2] = endpoint: survival time, mean or median, dose: 10.0 mg/kg/injection, schedule: Q01DX010 (ip), vehicle: saline
# [3] = endpoint: survival time, mean or median, dose: 62.5 mg/kg/injection, schedule: Q01DX010 (ip), vehicle: saline
# [4] = endpoint: survival time, mean or median, dose: 125.0 mg/kg/injection, schedule: Q01DX010 (ip), vehicle: saline
# [5] = endpoint: survival time, mean or median, dose: 250.0 mg/kg/injection, schedule: Q01DX010 (ip), vehicle: saline
# [6] = endpoint: survival time, mean or median, dose: 500.0 mg/kg/injection, schedule: Q01DX010 (ip), vehicle: saline
# [7] = endpoint: survival time, mean or median, dose: 25.0 mg/kg/injection, schedule: Q01DX015 (ip), vehicle: carboxymethylcellulose (CMC)
# [8] = endpoint: survival time, mean or median, dose: 50.0 mg/kg/injection, schedule: Q01DX015 (ip), vehicle: carboxymethylcellulose (CMC)
compound,measurement,setting,value
Cc1c(O)ccc(=O)n1O,T/C,"endpoint: survival time, mean or median, dose: 49.0 mg/kg/injection, schedule: Q01DX015 (ip), vehicle: other",100 % of control
same,T/C,"endpoint: survival time, mean or median, dose: 73.0 mg/kg/injection, schedule: Q01DX015 (ip), vehicle: other",97 % of control
same,T/C,"endpoint: survival time, mean or median, dose: 110.0 mg/kg/injection, schedule: Q01DX015 (ip), vehicle: other",105 % of control
Cc1cc(N(CCCl)CCCl)ccc1N=Nc1ccccc1C(=O)O,T/C,[1],91 % of control and 107 % of control
same,T/C,[2],108 % of control and 110 % of control
same,T/C,"endpoint: survival time, mean or median, dose: 20.0 mg/kg/injection, schedule: Q01DX010 (ip), vehicle: saline",108 % of control
CCCCN(CCCC)CCCCCN,T/C,"endpoint: survival time, mean or median, dose: 5.0 mg/kg/injection, schedule: Q01DX015 (ip), vehicle: carboxymethylcellulose (CMC)",99 % of control
same,T/C,"endpoint: survival time, mean or median, dose: 10.0 mg/kg/injection, schedule: Q01DX015 (ip), vehicle: carboxymethylcellulose (CMC)",101 % of control
same,T/C,"endpoint: survival time, mean or median, dose: 20.0 mg/kg/injection, schedule: Q01DX015 (ip), vehicle: carboxymethylcellulose (CMC)",104 % of control
same,T/C,"endpoint: survival time, mean or median, dose: 30.0 mg/kg/injection, schedule: Q01DX015 (ip), vehicle: carboxymethylcellulose (CMC)",99 % of control
O=c1cn[nH]c(=O)[nH]1,T/C,[3],95 % of control and 100 % of control and 109 % of control
same,T/C,[4],91 % of control and 95 % of control and 110 % of control
same,T/C,[5],90 % of control and 93 % of control and 115 % of control
same,T/C,[6],100 % of control (2×) and 106 % of control
N#[N+]c1cnc([O-])[nH]c1=O,T/C,"endpoint: survival time, mean or median, dose: 1.25 mg/kg/injection, schedule: Q01DX010 (ip), vehicle: saline",107 % of control
same,T/C,"endpoint: survival time, mean or median, dose: 2.5 mg/kg/injection, schedule: Q01DX010 (ip), vehicle: saline",103 % of control
same,T/C,[1],121 % of control
same,T/C,[2],121 % of control
Clc1ccc2c(Cl)ncnc2c1,T/C,[7],95 % of control
same,T/C,[8],88 % of control
CC(=O)N(C)C,T/C,[3],86 % of control and 105 % of control and 121 % of control
same,T/C,[4],95 % of control and 100 % of control and 112 % of control
same,T/C,[5],95 % of control and 105 % of control
same,T/C,[6],95 % of control and 100 % of control and 115 % of control
Nc1nc(F)nc2c1ncn2C1OC(CO)C(O)C1O (stereo unspecified),T/C,"endpoint: survival time, mean or median, dose: 0.75 mg/kg/injection, schedule: Q01DX015 (ip), vehicle: saline",88 % of control
Nc1nc(SCc2ccccn2)c2[nH]cnc2n1,T/C,"endpoint: survival time, mean or median, dose: 12.5 mg/kg/injection, schedule: Q01DX015 (ip), vehicle: carboxymethylcellulose (CMC)",98 % of control
same,T/C,[7],96 % of control
same,T/C,"endpoint: survival time, mean or median, dose: 100.0 mg/kg/injection, schedule: Q01DX015 (ip), vehicle: carboxymethylcellulose (CMC)",104 % of control
Cc1cc2nc3c(=O)[nH]c(=O)nc-3n(CC(O)C(O)C(O)C(O)CO)c2cc1C (stereo unspecified),T/C,[8],90 % of control
same,T/C,"endpoint: survival time, mean or median, dose: 200.0 mg/kg/injection, schedule: Q01DX015 (ip), vehicle: carboxymethylcellulose (CMC)",87 % of control
N[C@H](C(=O)O)[C@@H]1CC(Cl)=NO1,T/C,"endpoint: median survival time, dose: 0.38 mg/kg/injection, schedule: Q01DX009 (ip), vehicle: saline",92 % of control
same,T/C,"endpoint: median survival time, dose: 0.75 mg/kg/injection, schedule: Q01DX009 (ip), vehicle: saline",78 % of control
same,T/C,"endpoint: median survival time, dose: 1.5 mg/kg/injection, schedule: Q01DX009 (ip), vehicle: saline",69 % of control
same,T/C,"endpoint: median survival time, dose: 3.0 mg/kg/injection, schedule: Q01DX009 (ip), vehicle: saline",74 % of control
COc1ccc(C2NCCS2)cc1 (stereo unspecified),T/C,"endpoint: survival time, mean or median, dose: 50.0 mg/kg/injection, schedule: Q01DX010 (ip), vehicle: saline",103 % of control
same,T/C,"endpoint: survival time, mean or median, dose: 100.0 mg/kg/injection, schedule: Q01DX010 (ip), vehicle: saline",100 % of control
same,T/C,"endpoint: survival time, mean or median, dose: 200.0 mg/kg/injection, schedule: Q01DX010 (ip), vehicle: saline",106 % of control
same,T/C,"endpoint: survival time, mean or median, dose: 400.0 mg/kg/injection, schedule: Q01DX010 (ip), vehicle: saline",100 % of control
CC(=O)NC1=C(N2CC2)C(=O)C(NC(C)=O)=C(N2CC2)C1=O,T/C,"endpoint: survival time, mean or median, dose: 0.5 mg/kg/injection, schedule: Q01DX015 (ip), vehicle: carboxymethylcellulose (CMC)",174 % of control
same,T/C,"endpoint: survival time, mean or median, dose: 1.0 mg/kg/injection, schedule: Q01DX015 (ip), vehicle: carboxymethylcellulose (CMC)",150 % of control
CCN(CC)c1ccc2cc3ccc(=[N+](CC)CC)cc-3oc2c1,T/C,"endpoint: survival time, mean or median, dose: 1.0 mg/kg/injection, schedule: Q01DX010 (ip), vehicle: saline",96 % of control
